We go through one compound from patent US20210077668A1, “Highly Adherent Polymers for Orthopedic Device Coatings” (Clemson University Research Foundation, priority 2018, published 2021).

What all share (assay type): cell-based
For assay [1], the system named is S. aureus. Description: Maximum concentration of bacteria inactivated in the presence of 1 cm pieces of K-wires. On the procedure:
Control K-wires were coated with monolaurin (ML), a natural antimicrobial agent active against S. aureus. Sample K-wires were coated with a copolymer formed from 20 mole percent glycidyl methacrylate, 60 mole percent ethylene glycol methacrylate and 20 mole percent ethylene glycol methacrylate available as OEGMA 950 from Sigma Aldrich. Some of the K-wires were pulled through Septa™, to simulate surgical insertion, and the antimicrobial activity was measured. Each example was replicated nine times.

The subject of assay [2] is S. aureus. Description: Bacteria count versus time with coated K-wires (FIG. 1). The method, then: Additional tests were done wherein bacterial count was monitored versus time for different bacteria. In FIG. 1 the bacteria count was measured for S. aureus versus time. The K-wire alone as a control was ineffective as expected.
Assay [3] deals with Methicillin-Resistant Staphylococcus Aureus (MRSA). Description: Bacteria count versus time with coated K-wires (FIG. 2).
In assay [4] the test system is S. aureus biofilms. Description: Effectiveness against biofilms, K-wires incubated in S. aureus for 48 hours (FIG. 4). The conditions noted are these: S. aureus 48 hours. On the procedure:
Effectiveness of the inventive examples against biofilms was determined. Samples were prepared including a control K-wire (Control), a K-wire coated with ML only but not passed through a Septa™ (ML Coated), a sample treated with ML and passed through a Septa™ (ML Coated Septa), and inventive examples comprising ML with polymer, using OEGMA as the hydrophilic moiety (ML/POEGMA). Some of the inventive samples were passed through a Septa™ (ML/POEGMA Septa). The samples were all incubated in S. aureus for 48 hours. The results are provided graphically in FIG. 4.

Assay [5] has as its system S. aureus biofilms. Put plainly: S. aureus biofilm formation on 1 cm K-wire pieces, 48 hours (Example 3). The method, then: The performance of Copolymer A was compared to poly(lactide-co-glycolide) PLGA) with monolaurin as a model antimicrobial additive. S. aureus biofilms were grown by statically incubating a S. Aureus suspension with 1 cm K-wire pieces for 48 hours.

On to `CCCCCCCCCCCC(=O)OCC(O)CO` (centres unmarked) [ML, monolaurin], for which the “Maximum concentration of bacteria inactivated in the presence of 1 cm pieced of K-wires” value in the assay on S. aureus [1] (No Polymer after Septa, ML 1 mg/ml) is reported as 0; in the assay on S. aureus [1] (No Polymer after Septa, ML 3 mg/ml), 0; with S. aureus [1] (No Polymer after Septa, ML 5 mg/ml), 0; with S. aureus [1] (No Polymer after Septa, ML 10 mg/ml), 0; with S. aureus [1] (No Polymer, no Septa, ML 1 mg/ml) it was ~6 × 10^6; with S. aureus [1] (No Polymer, no Septa, ML 3 mg/ml), ~7 × 10^6. In addition, the “Maximum concentration of bacteria inactivated in the presence of 1 cm pieced of K-wires” value in the assay with S. aureus [1] (No Polymer, no Septa, ML 5 mg/ml) was ~6 × 10^6; with S. aureus [1] (No Polymer, no Septa, ML 10 mg/ml), ~8 × 10^6. The “bacteria count versus time (course)” value with S. aureus [2] is reported as “immediate decrease in bacteria due to essentially immediate release of ML, however, the activity was not sustained”; in assay [3], “results similar to those observed for S. aureus”. Also, the effectiveness against biofilms entry in the assay with S. aureus biofilms [4] (not passed through a Septa) is on record as “effective resistance”; with S. aureus biofilms [4] (passed through a Septa), “removed or otherwise rendered ineffective”. Moreover, the “antimicrobial activity against biofilm formation” value with S. aureus biofilms [5] (after pulling the wires through silicon rubber Septa caps) is “lost the antimicrobial activity”. Besides, the “prevention of biofilm formation” value in the assay with S. aureus biofilms [5] (before pulling through Septa, S. aureus 48 hours) is “efficient in preventing biofilm formation”.
